Measurements: US20160193328A1, “Immunoadjuvant Compositions and uses Thereof” (INSERM (INSTITUT NATIONAL DE LA SANTÉ ET DE LA RECHERCHE …, priority 2013, published 2016)

Columns and labels:
IL-6 = IL-6 in serum of immunised animals (IL-6 ELISA kit); format: in vivo, mice; details: 4 hours after i.p. injection; 1W1K in Alum
OVA-specific B cells = experiment: OVA-specific B cell response in dLN after immunisation (flow cytometry); format: in vivo, C57Bl/6 mice; details: TLR agonist added to IFA; 100 μg OVA s.c.; 14 days; FIG. 2A
Description: (§1) Mice were either i.p. injected or immunized s.c. at the base of tail with 40 μg of peptide 1W1K, 100 μg of OVA, 200 μg of Ea-FITC in the indicated adjuvant with or without soluble TLR agonist, in a final volume of 200 µL. To target moDC, mice were immunised s.c. with 1.2×1010 beads (which correspond to 40 μg Ea52-68, 1W1K or 100 μg OVA) in indicated adjuvant with or without soluble TLR agonist. At indicated times post-immunisation, spleen or dLN (inguinal and periaortic) were collected and cells were stained for flow cytometry analysis.
For population analysis, dLN were harvested from mice and single cell suspensions were prepared in PBS with 2% FCS, 5 mM EDTA. For DC analysis, lymphoid organs were dissociated using 125 μg/mL LiberaseTL (Roche) and 40 μg/mL DNAase I (Sigma-Aldrich) at 37° C. for 20 min. […] Data were collected on a BD LSRII™ (BD Biosciences) and analysed using FlowJo software (Tree Star).
We hypothesized that an increase in the CD4+ T cell help and specifically an increase of the Tfh cells, the critical regulators of B cell responses, could result in a greater B cell response to the Ag after addition of TLR agonist to another adjuvant. The murine B cell response to ovalbumin (OVA) in wt animals is a valuable immunisation model that can be monitored via the polyclonal Ig repertoires. OVA-specific B cells can be detected by flow cytometry as CD3-IgD− cells that bind specifically to A1exa488-conjugated OVA (OVA+) (data not shown). […] Using this strategy, we determined if addition of TLR agonist to IFA impacts OVA-specific B cell responses in vivo. […]

OVA-specific IgG = OVA-specific IgG in serum by ELISA after immunisation; format: in vivo, C57Bl/6 mice
1W1K-specific Tfh cells = experiment: 1W1K-specific CD4+ T cell and Tfh cell response in draining lymph nodes after immunisation (pMHCII tetramer flow cytometry); format: in vivo, C57Bl/6 mice; details: for 1W1K-specific Tfh cells in the dLN / amount of 1W1K-specific CD4+ T cells / total number of CD4+ T cells in the dLN: TLR agonist added to IFA; for 1W1K-specific Tfh cells in the dLN: 40 μg 1W1K s.c., 9 days, FIG. 1A; for amount of 1W1K-specific CD4+ T cells / total number of CD4+ T cells in the dLN: 1W1K s.c., peak of primary response, versus IFA only
Description: as §1
To block IL-6 signalling, i.p. injections of 100 μg D7715A7 mAb (anti-IL-6R[…], eBioscience) or Rat IgG2b isotype control were performed at day −1 and +4 post-immunisation. To deplete mice of monocytes, i.v. injections of 250 μL of clodronate liposomes or control PBS liposomes (clodronateliposome.com) were performed from day −1 every second day.
For population analysis, dLN were harvested from mice and single cell suspensions were prepared in PBS with 2% FCS, 5 mM EDTA. For DC analysis, lymphoid organs were dissociated using 125 μg/mL LiberaseTL (Roche) and 40 μg/mL DNAase I (Sigma-Aldrich) at 37° C. for 20 min. 1×10^8 cells/ml were labelled at 4° C. for 45 min with mAbs: Reagents from BD Pharmingen [AlexaFluor488-K112-91 (anti-Bcl-6); PE-M1/70 (anti-CD11b), PE-281-2 (anti-CD138); Cy5PE-M1/70 (anti-CD11b); APC-2G8 (anti-CXCR5); V500-500A2 (anti-CD3); Pacific Blue-53-6.7 (anti-CD8α); Biotin-Jo2 (anti-CD95); Biotin-2G8 (anti-CXCR5)], Reagents from eBioscience [FITC-eBio1D3 (anti-CD19), FITC-RA3-6B2 (anti-B220), FITC-RM4-5 (anti-CD4); PE-MAR-1 (anti-FceR1), PE-205yekta (anti-CD205), PE-2E7 (anti-CD 103), PE-MP5-20F3 (anti-IL-6); Cy5PE-RM4-5 (anti-CD4); Cy7PE-N418 (anti-CD11c), Cy7PE-53-6.7 (anti-CD8α); Cy5.5PE-anti-CD19, Cy5.5PE-HK1.4 (anti-Ly-6c); APC-N418; AlexaFluor647 anti-GL-7; AlexaFluor700-MEL-14 (anti-CD62L), AlexaFluor700-eBio1D3, AlexaFluor700-IM7 (anti-CD44); APCeFluor780-IM7, APCeFluor780-BM8 (anti-F4/80), APCeFluor780-RA3-6B2; eFluor450-11-26c (anti-IgD), eFluor450-MEL-14; biotin-Y-Ae], reagent from R&D PE-475301(anti-CCR2). Before data collection […] propidium iodide (PI) was added to samples. 1W1K-IAb tetramer was obtained from NIH Tetramer core facility. For IL-6 intracellular staining cell suspensions were incubated for 4 hr at 37° C. in the presence of 3 μg/mL Golgi Plug (BD Bioscience) and 4 μM Monensin, fixed and permabilised using BD Fixation/Permeabilisation kit. Before permeabilisation cells were stained with Fixable Viability Dye eFluor450 or eFluor660 (eBioscience). Data were collected on a BD LSRII™ (BD Biosciences) and analysed using FlowJo software (Tree Star).
6-8-wk-old C57Bl/6 mice were irradiated (0.85 Gy) the day before i.v. injection of 1×10^7 T cell-depleted BM cells that consisted of a mix of 70% from CD11c-DTR or JHT supplemented with 30% from TLR9KO, Myd88KO, TRIFKO, IL-6K0 or wt CD45.1 C57Bl/6 mice. After 8 wk, the chimeras with CD11c-DTR BM were i.p. treated every second day with 4 ng/g body weight DTx (Sigma-Aldrich) and 1 day before immunisation with 20 ng/mouse s.c. Treated animals were then s.c. immunised either with 1W1K or OVA as described above.
The combination of adjuvant to a peptide favours robust T-dependent B cell immunity. To test whether addition of TLR agonists to other vaccine adjuvant could have a synergistic effect on the induced immune response, we examined the I-Ab restricted murine CD4+ T cell response to a peptide variant ([…], called 1W1K peptide hereafter, SEQ ID NO:1) of the I-E alpha chain immunodominant peptide 52-68 (Ea52-68) in C57Bl/6 mice. We followed the 1W1K-specific CD4+ T cells with the corresponding pMHCII tetramer in the draining lymph nodes (dLN) after sub-cutaneous (s.c.) immunisation in Incomplete Freund's adjuvant (IFA). At the peak of the effector CD4+ T cell response, we detected the CD44+ and pMHCII tetramer+1W1K-specific CD4+ T cells in the dLN (data not shown). […]

[1] = BM chimeras (JHT + MyD88KO) lacking MyD88 signalling in B cells, added to IFA

Row | Substance | IL-6 in the serum, sensitised JHT animals compared to sensitised wt mice (IL-6) | OVA-specific GC-B cells (OVA-specific B cells) | OVA-specific PC (OVA-specific B cells) | overall OVA-specific B cells (OVA-specific B cells) | enhancing effect on OVA-specific IgG (OVA-specific IgG; [1]) | circulating OVA-specific IgG (OVA-specific IgG; IFA supplemented with TLR agonist, 14 days, FIG. 2B) | enhancing effect on 1W1K-specific Tfh cells (1W1K-specific Tfh cells; [1]) | 1W1K-specific Tfh cells in the dLN (1W1K-specific Tfh cells) | amount of 1W1K-specific CD4+ T cells (1W1K-specific Tfh cells) | total number of CD4+ T cells in the dLN (1W1K-specific Tfh cells) | 1W1K-specific Tfh cell differentiation (1W1K-specific Tfh cells; added to Alum, i.p., JHT mice (no functional B cells), 5 days) | increase of 1W1K-specific Tfh response (1W1K-specific Tfh cells; chimeras (CD11c-DTR + MyD88KO), DTx: MyD88 signalling in CD11c+ cells impaired, FIG. 3B)
1 | lipopolysaccharide [LPS] | significant decrease | increased | increased | increased | also observed | significant increase | also observed | induced an increase | did not statistically change | did not statistically change | enhanced | not observed
2 | poly(I:C) | – | – | – | – | – | – | – | had no enhancing effect | did not statistically change | did not statistically change | – | –
